Source: patent US6916843B1, “Anti-inflammatory actions of cytochrome P450 expoxygenase-derived eicosanoids” (The United States of America as represented by the …, priority 1999, dated 2005)

How the values were obtained:
VCAM-1 = VCAM-1 expression in the murine carotid artery after TNF-α; assay type: in vivo; details: mouse, intra-arterial infusion 100 ng/kg/min, TNF-α 10 μg/kg i.p., 5 hours
Method: (§1) FIG. 3A is a graph showing the expression of VCAM-1 in the murine carotid artery at 5 hours after treatment with intraperitaneal injection of TNF-α (10 μg/kg) alone or in combination with continuous intra-arterial infusion of [11,12]-EET (100 ng/kg/min). FIG. 3B is a bar graph showing the effect of [11,12]-EET on TNF-α induced mononuclear cell adhesion in the murine carotid artery. The mononuclear cells (U937) were perfused through the carotid artery at a wall shear stress of 3 dyn/cm^2. Intra-arterial infusion of vehicle (saline) or [14,15]-EET (100 ng/kg/min) had no effect. […] All experiments except the [14,15]-EET infusion were performed in duplicate.
(§2) To determine the functional relevance of EETs in vascular inflammation, we tested [11,12]-EET and its regioisomer [14,15]-EET in a recently developed in vivo model of TNF-α-induced VCAM-1 -mediated mononuclear cell adhesion in the murine carotid artery. […]
(§3) Cell rolling and adhesion were recorded on videotape using stroboscopic epifluoresence illumination with an introvital microscope (objective Zeiss 20×, 0.5 numerical aperture). […] In separate experiments, VCAM-1 expression was measured in paraffin-sections (5 μm thick) of carotid arteries harvested from mice treated in the same way. […]

[1] = system: mononuclear cell adhesion to carotid artery; test: TNF-α-induced mononuclear cell (U937) adhesion in the murine carotid artery; assay type: in vivo; details: mouse, intra-arterial infusion 100 ng/kg/min, TNF-α 10 μg/kg i.p., 5 hours
Method: as §1, §2, §3

CCCCC/C=C\C[C@H]1O[C@H]1C/C=C\C/C=C\CCCC(=O)O [[11,12]-EET]
VCAM-1 expression in carotid artery (VCAM-1): decreased | mononuclear cell adhesion to the vessel wall [1]: inhibited
